Experimental data reported in patent publication US20250051324A1, “PARP INHIBITOR, PHARMACEUTICAL COMPOSITION COMPRISING SAME, AND USE THEREOF” (KEYTHERA (SUZHOU) BIO-PHARMACEUTICALS CO., LIMITED, priority 2021, published 2025).

Assays:
[1] = Evaluation of pharmacokinetics in rats; format: in vivo; conditions: male, SD, rat, plasma, 1 mg/kg, oral gavage (PO, 1 mpk)
Description: Test Animals: 6-8 Week Old Male SD Rats
Food was restored two hours after dosing.

[2] = system: human breast cancer (MDA-MB-436) cell line; assay: Mouse CDX tumor model (MDA-MB-436 subcutaneous xenograft); format: in vivo; conditions: for Tumor Growth Inhibition Rate (TGI): 28 days
Method: Test Objective: The efficacy of the compounds was evaluated in a subcutaneous xenograft model of human breast cancer (MDA-MB-436) cell line in mice.
(§1) Test Compounds: Olaparib, Compound 1
Experimental Animals: Female NOD SCID mice, 4-5 weeks old, purchased from Nanjing Jicui.
(§2) Housing and Management: The experimental animals were housed in SPF-grade, temperature- and humidity-controlled clean rooms, using individually ventilated cages (IVC) with no more than 5 mice per cage. Temperature/humidity was controlled within the range of (23±3)° C./40-70%. Feed and water: SPF-grade mouse feed, sterilized by cobalt-60 irradiation. Drinking water was ultrafiltered and autoclaved. Animals had free access to sterile food and water. Animal identification: ear tags.
Tumor Cell Line and Tumor Model: MDA-MB-436 cells (Nanjing Cobioer Biotechnology Co., Ltd., Cat. No: CBP60385) were cultured in vitro in DMEM complete medium containing 10% fetal bovine serum, 1% penicillin-streptomycin, 1% insulin, and 16 μg/mL glutathione (37° C., 5% CO2). When the cells met the requirements for the in vivo efficacy experiment, they were collected, counted, and prepared into a PBS cell suspension. Each mouse (5-6 weeks old NOD SCID) was inoculated subcutaneously on the right flank with 0.9×10^7 cells. Tumor volume was measured and calculated three times a week after inoculation. When the tumor volume reached approximately 200-300 mm^3, the mice were grouped for administration.
Experimental Groups: The experiment was divided into the following groups: vehicle control group; Olaparib 100 mg/kg group; Compound 1 0.1 mg/kg group; Compound 1 0.3 mg/kg group; and Compound 1 1.0 mg/kg group. All groups were administered orally by gavage once daily. […] After 28 days of administration, the tumor volume was used to calculate the tumor growth inhibition rate (TGI %), and the tumor inhibition effect was statistically analyzed using software such as Excel, etc.

[3] = system: UWB1.289 ovarian cancer cells; assay: Cell proliferation assay, UWB1.289; format: cell-based; conditions: UWB1289, 168 h, read-out: UWB1.289 Cell IC50
Method: Experimental Materials: MDA-MB-436 or UWB1.289 cell lines were purchased from Cobioer Biosciences Co. Ltd. (Nanjing, China). The STR identification results were a complete match, and mycoplasma testing was negative. MDA-MB-436 cells were cultured in DMEM complete medium containing 10% fetal bovine serum, 1% penicillin-streptomycin, 1% insulin, and 16 μg/mL glutathione; UWB1.289 cells were cultured in RMPI1640 complete medium containing 10% fetal bovine serum and 1% penicillin-streptomycin.
1. MDA-MB-436 or UWB1.289 cells were cultured in the aforementioned medium (culture conditions: 37° C., 5.0% CO2 in air) until they reached the logarithmic growth phase. The cells were then digested with trypsin containing 0.25% EDTA, centrifuged at 1000 rpm, and the supernatant was discarded. Cell culture medium was added, and the cell suspension was adjusted to 2×10^4/mL after counting. 135 μL of the cell suspension per well was taken and cultured in a 96-well cell culture plate for 16 hours (culture conditions: 37° C., 5.0% CO2 in air).
2. The test compounds, stored at a concentration of 10 mM, were diluted 2.5 times with DMSO and then serially diluted in a 1:3 gradient (9 gradients). The gradient-diluted samples were further diluted 40 times with serum-free medium, and 15 μL of each was added to the 96-well cell culture plate. The positive control group received serum-free medium containing the same concentration of DMSO, and the negative control group received medium without cells. The cells were then cultured for an additional 7 days.
3. After the culture period, the cell culture plate was placed at room temperature for 30 minutes. Then, 100 μL of CellCounting-Lite 2.0 reagent (Vazyme, #DD1101) was added to each well, mixed thoroughly, and incubated in the dark at room temperature for 10 minutes. The luminescence signal was read using a Synergy HTX multi-mode reader.
4. Data analysis was performed using GraphPad Prism 8.0 software. The inhibition rate (%) was calculated as 100*(average luminescence signal of the positive control group−luminescence signal of the compound)/(average luminescence signal of the positive control group−average luminescence signal of the negative control group). The IC50 value was obtained by plotting the logarithm of the compound concentration against the percentage inhibition rate.

[4] = system: MDA-MB-436 breast cancer cells; assay: Cell proliferation assay, MDA-MB-436; format: cell-based; conditions: Homo sapiens, MDA-MB-436, 168 h, read-out: MDA-MB-436 Cell IC50
Outline: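 Cells seeded 16 h, then exposed to a 9-point 1:3 compound dilution series for 7 days at 37° C., 5% CO2; DMSO-matched and cell-free controls. Viability by CellCounting-Lite luminescence; IC50 from log concentration versus % inhibition.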

PARP1 = PARP1 (Homo sapiens (Human), UniProt P09874); assay: PARP1 trapping assay; format: biochemical; conditions: read-out: Inhibitory Effect on PARP1 Trapping IC50
Chain of PARP1 (P09874 whole entry): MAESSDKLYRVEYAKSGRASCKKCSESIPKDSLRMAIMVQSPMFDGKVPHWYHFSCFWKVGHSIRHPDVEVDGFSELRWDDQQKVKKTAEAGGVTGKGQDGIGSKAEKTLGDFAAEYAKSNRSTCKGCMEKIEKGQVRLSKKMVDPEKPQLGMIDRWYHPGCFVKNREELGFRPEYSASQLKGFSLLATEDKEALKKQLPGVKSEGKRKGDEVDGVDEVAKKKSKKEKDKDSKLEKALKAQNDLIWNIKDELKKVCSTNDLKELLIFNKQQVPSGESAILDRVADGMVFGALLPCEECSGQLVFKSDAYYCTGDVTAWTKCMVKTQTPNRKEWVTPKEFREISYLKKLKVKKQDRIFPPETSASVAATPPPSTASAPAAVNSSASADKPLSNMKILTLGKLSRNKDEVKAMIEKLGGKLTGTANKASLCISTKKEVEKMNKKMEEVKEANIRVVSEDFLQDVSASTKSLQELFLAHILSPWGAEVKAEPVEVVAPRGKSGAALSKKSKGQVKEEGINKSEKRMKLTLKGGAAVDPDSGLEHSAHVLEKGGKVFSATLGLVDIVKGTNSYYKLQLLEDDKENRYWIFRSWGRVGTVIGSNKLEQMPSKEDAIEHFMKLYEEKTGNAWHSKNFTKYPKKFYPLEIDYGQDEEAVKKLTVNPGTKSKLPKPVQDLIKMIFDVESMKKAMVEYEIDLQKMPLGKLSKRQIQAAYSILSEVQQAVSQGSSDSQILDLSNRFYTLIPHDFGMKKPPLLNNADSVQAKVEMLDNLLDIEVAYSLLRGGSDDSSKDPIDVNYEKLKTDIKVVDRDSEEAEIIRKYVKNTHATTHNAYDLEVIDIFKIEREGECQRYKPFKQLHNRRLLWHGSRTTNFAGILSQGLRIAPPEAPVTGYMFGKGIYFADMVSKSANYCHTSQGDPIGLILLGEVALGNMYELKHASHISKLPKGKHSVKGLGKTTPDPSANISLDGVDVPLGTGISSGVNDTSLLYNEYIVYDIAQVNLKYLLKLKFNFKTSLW
Outline: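 PARP1 and PARP2 with GST-Tb antibody and probe incubated with serially diluted compounds for 45 min at room temperature, then NAD added for 10 min before plate reading. Percent inhibition derived from compound, blank and vehicle control readings.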

[5] = system: peripheral blood reticulocytes; assay: Effect of compound on rat reticulocytes; format: in vivo; conditions: 4 days
Method: Test Objective: The effect of the compound on peripheral blood reticulocytes was evaluated to determine its impact on bone marrow hematopoietic function.
as §1
as §2, with “Experimental Animals: Male Sprague Dawley rats were purchased from Beijing Charles River Laboratory Animal Technology Co., Ltd. Housing” for “Housing”, “rats” for “mice”, “rat” for “mouse”
Experimental Method: The experiment was divided into the following 5 groups: vehicle control group; Olaparib 100 mg/kg; Compound 1 0.1 mg/kg; Compound 1 0.3 mg/kg; and Compound 1 1.0 mg/kg. All treatments were administered orally by gavage once daily for 4 days. Blood samples were collected before and after treatment to measure peripheral blood reticulocyte counts.

Structure (SMILES): CNC(=O)c1ccc(N2CCN(Cc3cnc4c(C)c(C(F)(F)F)c(=O)[nH]c4c3)CC2)cn1 [Compound 1, N-methyl-5-(4-((8-methyl-6-oxo-7-(trifluoromethyl)-5,6-dihydro-1,5-naphthyridin-3-yl)methyl)piperazin-1-yl)picolinamide]
- AUC(0-inf) [1]: 11300 ng·h/mL
- Cmax [1]: 1740 ng/mL
- half-life [1]: 4.33 h
- Tumor Growth Inhibition Rate (TGI) ([2]; 0.1 mg/kg oral once daily): 89%
- Tumor Growth Inhibition Rate (TGI) ([2]; 0.3 mg/kg oral once daily): 113%
- Tumor Growth Inhibition Rate (TGI) ([2]; 1.0 mg/kg oral once daily): 115%
- Body weight vs vehicle control group ([2]; MDA-MB-436 model, all treatment groups): no significant difference
- IC50 [3]: 0.66 nM
- IC50 [4]: 1.59 nM
- IC50 (PARP1): 1.33 nM
- Reticulocyte Inhibition Rate ([5]; 0.1 mg/kg oral once daily): 12.2%
- Reticulocyte Inhibition Rate ([5]; 0.3 mg/kg oral once daily): 33.8%
- Reticulocyte Inhibition Rate ([5]; 1.0 mg/kg oral once daily): 41.9%
- Effect on peripheral blood reticulocytes (in words) ([5]; 0.1, 0.3 and 1.0 mg/kg, p>0.05): no significant effect
